Assay results published in patent US4849434A, “Novel thiazolidin-4-one derivatives and acid addition salts therof” (Sumitomo Pharmaceuticals Company, Limited, priority 1986, dated 1989).
Converted amounts (≈) assume the structure as drawn. Where two headings read alike, the source gives them in different places.

Experiments:
[1] = system: rabbit platelet aggregation caused by PAF; experiment: Inhibition of PAF-induced platelet aggregation in vitro test; type: cell-based, rabbit (Japanese white crossbred male); conditions: rabbit PRP; for Specific activity relative to the activity of the compound of Example 1: inhibition of PAF-induced aggregation, compound of Example 1 = 1
Protocol: The inhibition of PAF-induced platelet aggregation was examined by use of a platelet-rich plasma [PRP] of a rabbit according to the method of Mustard et al. [J. F. Mustard et al., J. Lab. Clin. Med., 64, 548 (1964)], which is an improved version of the method of Born [G. V. R. Born, J. Physiol., London, 162, 67 (1962)]. Thus, 80 to 100 ml of blood per animal was collected from the carotid artery of a Japanese white crossbred male rabbit without anesthesia into a polyethylene vessel in which 1/10 the volume of a 3.8% sodium citrate solution had been placed beforehand. A portion (about 3 ml) of the blood thus collected was subjected to high speed centrifugation (11,000 rpm, 60 seconds) to obtain a platelet-poor plasma (PPP) as supernatant. The remainder of the blood was subjected to low speed centrifugation (1,000 rpm, 10 minutes) to obtain a platelet-richplasma (PRP) as supernatant.
The platelet aggregation was evaluated by nephelometry, the determination being made with PRP stirred at 1,000 rpm at 37° C. by use of an aggregater (Hematracer, Niko Bioscience Co.). The platelet aggregation activity was expressed in terms of the percent of light transmission, that of PRP being taken as 0% and that of PPP being taken as 100%. A 0.2 ml portion of PRP was placed in a glass cuvette containing a silicone-treatediron stirring rod, and 2 μl of dimethyl sulfoxide was added thereto. After 2 minutes, a PAF solution in 0.25% BSA physiological saline was added thereto to give a final concentration of PAF of […] and the maximum aggregation was determined. To examine the inhibitory activity of test compounds for the platelet aggregation caused by PAF, 2 μl of a test compound dissolved in dimethyl sulfoxide was added in place of dimethyl sulfoxide described above. The PAF inhibitory rate of a test compound was calculated according to the following equation: [formula]

[2] = system: platelet aggregation caused by PAF; experiment: Inhibition of platelet aggregation, outside-living-body test (rabbit, intravenous); type: in vivo; conditions: Oryctolagus cuniculus, EC50 is of PAF, higher = more inhibition, read-out: EC50 value (PAF concentration necessary for causing an aggregation corresponding to 50% of the maximum PAF reaction)
Protocol: (§1) The test compound was intravenously administered (30 mg/kg) to a rabbit or orally administered (50 mg/kg) to a guinea pig. Blood samples were collected, and the extent of platelet aggregation caused by 10^-12 -10^-6 M of PAF was examined. The numerical values in the Table show the PAF concentrations (EC50 nM) necessary for causing an aggregation corresponding to 50% of the maximum PAF reaction.

[3] = system: platelet aggregation caused by PAF; experiment: Inhibition of platelet aggregation, outside-living-body test (guinea pig, oral); type: in vivo; conditions: Cavia porcellus, EC50 is of PAF, higher = more inhibition, read-out: EC50 value (PAF concentration necessary for causing an aggregation corresponding to 50% of the maximum PAF reaction)
Protocol: as §1

SMILES	Specific activity relative to the activity of the compound of Example 1 [1]	further results
C=CCN1C(=O)C(c2ccc(Cl)cc2)SC1c1cccnc1 (single isomer, unassigned) [Example 17]	1.0	–
C#CCN1C(=O)C(c2ccc(Cl)cc2)SC1c1cccnc1 (single isomer, unassigned) [Example 19]	1.2	–
COc1ccc(CCN2C(=O)C(c3ccc(Cl)cc3)SC2c2cccnc2)cc1OC (single isomer, unassigned) [Example 21]	2.2	–
CC(=O)OCCN1C(=O)C(c2ccc(Cl)cc2)SC1c1cccnc1 (single isomer, unassigned) [Example 32]	1.8	–
CN1C(=O)C(c2ccc(Cl)cc2)SC1c1cccnc1 (stereo not shown) [Example 1, 5-(4-chlorophenyl)-3-methyl-2-(3-pyridyl)thiazolidin-4-one]	–	IC50 ([1]; Oryctolagus cuniculus, Platelet, PAF-induced aggregation): 5 mg/L (≈ 16.4 µM); EC50 at 30 mg/kg ([2]; 0 hr after administration): 0.0062 µM; EC50 at 30 mg/kg ([2]; 0.5 hr after administration): 0.026 µM; EC50 at 30 mg/kg ([2]; 1 hr after administration): 0.02 µM; EC50 at 30 mg/kg ([2]; 2 hr after administration): 0.016 µM; EC50 at 30 mg/kg ([2]; 4 hr after administration): 0.014 µM; EC50 at 50 mg/kg ([3]; 0 hr after administration): 0.00023 µM; EC50 at 50 mg/kg ([3]; 0.5 hr after administration): 0.01 µM; EC50 at 50 mg/kg ([3]; 1 hr after administration): 0.017 µM; EC50 at 50 mg/kg ([3]; 2 hr after administration): 0.003 µM; EC50 at 50 mg/kg ([3]; 4 hr after administration): 0.001 µM
CN1C(=O)C(c2ccc(F)cc2)SC1c1cccnc1 (stereo not shown) [Example 4]	1.3	–
CN1C(=O)C(c2cccc3ccccc23)SC1c1cccnc1 (stereo not shown) [Example 5]	0.9	–
COc1ccc(C2SC(c3cccnc3)N(C)C2=O)cc1OC (stereo not shown) [Example 11]	0.7	–
CN1C(=O)C(c2c(Cl)cccc2Cl)SC1c1cccnc1 (stereo not shown) [Example 13]	2.3	–
CN1C(=O)C(c2ccccc2)SC1c1cccnc1 (stereo not shown) [Example 14]	1.4	–
CCN1C(=O)C(c2ccc(Cl)cc2)SC1c1cccnc1 (stereo not shown) [Example 15]	0.5	–
O=C1C(c2ccc(Cl)cc2)SC(c2cccnc2)N1CCCO (stereo not shown) [Example 27]	0.6	–
